# In ChEMBL document CHEMBL4837181 (Eur J Med Chem, 2020):
# Experiments:
# [1] = Toxicity in rat assessed as labored breathing at 150 to 180 mg/kg, po; format: organism-based; settings: in vivo, dose 150-180 mg/kg
# [2] = Drug metabolism in cynomolgus monkey assessed as formation of M9 metabolite at 75 to 675 mg/kg, po administered as single dose; format: ADME, organism-based, Macaca fascicularis; settings: in vivo, dose 75-675 mg/kg
# [3] = biological target: T1, Solute carrier family 22 member 6 (Homo sapiens, UniProt Q4U2R8); experiment: Inhibition of OAT1 (unknown origin) expressed in HEK293 cells; format: cell-based
# T1 sequence (Q4U2R8 whole entry): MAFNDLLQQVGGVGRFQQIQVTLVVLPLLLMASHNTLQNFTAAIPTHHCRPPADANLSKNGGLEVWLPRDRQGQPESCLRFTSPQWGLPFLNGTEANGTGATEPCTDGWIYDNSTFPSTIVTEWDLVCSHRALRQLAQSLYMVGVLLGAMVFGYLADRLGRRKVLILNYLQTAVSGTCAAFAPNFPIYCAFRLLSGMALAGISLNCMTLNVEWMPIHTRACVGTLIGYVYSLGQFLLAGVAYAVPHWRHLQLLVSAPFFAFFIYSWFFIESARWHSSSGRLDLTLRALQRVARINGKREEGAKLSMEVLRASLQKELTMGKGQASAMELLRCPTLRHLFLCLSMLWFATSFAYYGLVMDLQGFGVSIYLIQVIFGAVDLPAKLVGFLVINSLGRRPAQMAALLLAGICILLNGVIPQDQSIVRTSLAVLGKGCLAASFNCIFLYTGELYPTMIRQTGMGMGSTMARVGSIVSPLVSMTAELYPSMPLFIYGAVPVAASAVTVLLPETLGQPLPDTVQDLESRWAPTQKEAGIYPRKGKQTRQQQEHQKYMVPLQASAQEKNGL
# [4] = Cmax in female rat at 180 mg/kg, po BID measured on day 28; format: ADME, organism-based; parameters: route oral, dose 180 mg/kg; settings: in vivo
# [5] = AUC (0 to 12 hrs) in male rat at 150 mg/kg, po BID measured on day 28; format: ADME, organism-based; parameters: time < 12 hr, route oral, dose 150 mg/kg; settings: in vivo
# [6] = Stability in human plasma assessed as parent compound remaining measured after 24 hrs by LC-MS/MS analysis; format: ADME, cell-free; settings: read-out: Stabilty
# [7] = Drug metabolism in human hepatocytes assessed as unmetabolized compound at 10 uM incubated for 120 mins by UPLC-QTOF-PDA analysis; format: ADME, cell-based, Hepatocyte; settings: read-out: Drug metabolism
# [8] = Tmax in female cynomolgus monkey at 150 mg/kg, po BID measured on day 8; format: ADME, organism-based, Macaca fascicularis; settings: in vivo
# [9] = Genotoxicity in rat; format: toxicity
# [10] = Drug metabolism in cynomolgus monkey assessed as indoximod formation of by measuring indoximod Tmax at 15 mg/kg, iv administered as single dose; format: ADME, organism-based, Macaca fascicularis; settings: in vivo
# Cytochrome P450 3A4 = Cytochrome P450 3A4 (Homo sapiens, UniProt P08684); experiment: Direct inhibition of CYP3A4 in human hepatocytes; format: ADME, cell-based, Hepatocyte
# Chain of Cytochrome P450 3A4 (P08684 whole entry): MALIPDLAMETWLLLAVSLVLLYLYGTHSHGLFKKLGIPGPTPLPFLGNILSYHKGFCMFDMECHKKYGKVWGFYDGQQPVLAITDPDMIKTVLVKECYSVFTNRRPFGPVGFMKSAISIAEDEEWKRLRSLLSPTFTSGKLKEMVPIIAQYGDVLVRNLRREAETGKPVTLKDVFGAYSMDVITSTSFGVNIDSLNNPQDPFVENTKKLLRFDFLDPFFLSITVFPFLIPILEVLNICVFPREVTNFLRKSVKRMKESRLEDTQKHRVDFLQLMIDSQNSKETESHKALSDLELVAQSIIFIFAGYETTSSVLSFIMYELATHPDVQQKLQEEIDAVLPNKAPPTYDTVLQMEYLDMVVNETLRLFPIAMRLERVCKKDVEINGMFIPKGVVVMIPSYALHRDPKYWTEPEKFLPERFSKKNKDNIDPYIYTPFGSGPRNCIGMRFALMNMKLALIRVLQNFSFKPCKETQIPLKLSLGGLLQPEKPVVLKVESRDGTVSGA
# [11] = Stability in human plasma assessed as parent compound remaining measured after 6 hrs by LC-MS/MS analysis; format: ADME, cell-free; settings: read-out: Stabilty
# [12] = Toxicity in monkey assessed as change in respiratory parameter; parameters: species or system Macaca mulatta; settings: rhesus monkey, in vivo
# [13] = Toxicity in monkey assessed as change in cardiovascular parameter; parameters: species or system Macaca mulatta; settings: rhesus monkey, in vivo
# [14] = Drug metabolism in mouse assessed as indoximod formation by measuring indoximod Tmax at 20 to 900 mg/kg; format: ADME, organism-based; settings: in vivo, dose 20-900 mg/kg
# [15] = Lipophilicity, logP of the compound; format: physicochemical; settings: octanol/water
# [16] = Inhibition of P-gp transporter activity in MDR1-MDCK2 cells; format: cell-based, Canis lupus familiaris; settings: mdckii-mdr1
# [17] = Toxicity in rat assessed as change in behavioral parameter; settings: in vivo
# [18] = Drug metabolism in cynomolgus monkey assessed as ratio of indoximod to parent compound at 75 to 675 mg/kg, po administered as single dose; format: ADME, organism-based, Macaca fascicularis; settings: in vivo, dose 75-675 mg/kg
# [19] = Stability in mouse plasma assessed as parent compound remaining measured after 2 hrs by LC-MS/MS analysis; format: ADME, cell-free; settings: read-out: Stabilty
# [20] = Chemical stability of compound in simulated intestinal fluid assessed as compound remaining at 5 uM measured after 24 hrs by LC-MS/MS analysis; format: ADME, physicochemical; settings: read-out: Stabilty
# [21] = Chemical stability of compound in simulated gastric fluid assessed as compound remaining at 5 uM measured after 24 hrs by LC-MS/MS analysis; format: ADME, physicochemical; settings: read-out: Stabilty
# [22] = Drug metabolism in cynomolgus monkey hepatocytes assessed as unmetabolized compound at 10 uM incubated for 120 mins by UPLC-QTOF-PDA analysis; format: ADME, cell-based, Macaca fascicularis, Hepatocyte; settings: read-out: Drug metabolism
# Cytochrome P450 2C19 = Cytochrome P450 2C19 (Homo sapiens, UniProt P33261); experiment: Inhibition of CYP2C19 in human hepatocytes; format: ADME, cell-based, Hepatocyte
# Chain of Cytochrome P450 2C19 (P33261 whole entry): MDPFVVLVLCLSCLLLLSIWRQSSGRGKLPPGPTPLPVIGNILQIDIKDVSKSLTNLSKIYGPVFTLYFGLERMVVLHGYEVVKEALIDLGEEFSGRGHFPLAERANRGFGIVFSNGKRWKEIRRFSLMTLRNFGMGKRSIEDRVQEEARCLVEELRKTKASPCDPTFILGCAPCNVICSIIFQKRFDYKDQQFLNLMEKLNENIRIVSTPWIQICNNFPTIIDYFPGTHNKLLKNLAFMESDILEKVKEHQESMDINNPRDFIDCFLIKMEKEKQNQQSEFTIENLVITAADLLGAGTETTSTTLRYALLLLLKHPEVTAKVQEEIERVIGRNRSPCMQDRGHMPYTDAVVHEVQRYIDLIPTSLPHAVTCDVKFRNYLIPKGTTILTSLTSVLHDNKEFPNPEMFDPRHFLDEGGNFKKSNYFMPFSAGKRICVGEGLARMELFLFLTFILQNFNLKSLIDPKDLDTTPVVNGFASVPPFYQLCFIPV
# [23] = Lipophilicity, logD of compound; format: physicochemical; settings: octanol/water
# [24] = Drug metabolism in rats assessed as formation of M9 metabolite at 20 to 900 mg/kg; format: ADME, organism-based; settings: rat, in vivo; dose 20-900 mg/kg
# [25] = Toxicity in rat assessed as decreased food assumption at 150 to 180 mg/kg, po; format: organism-based; settings: in vivo, dose 150-180 mg/kg
# [26] = Toxicity in po BID rat assessed as NOAEL; format: organism-based; settings: in vivo
# [27] = AUC (0 to 12 hrs) in rat po BID measured on day 28; format: ADME, organism-based; parameters: time < 12 hr, route oral; settings: in vivo
# Cytochrome P450 2C9 = Cytochrome P450 2C9 (Homo sapiens, UniProt P11712); experiment: Inhibition of CYP2C9 in human hepatocytes; format: ADME, cell-based, Hepatocyte
# Chain of Cytochrome P450 2C9 (P11712 whole entry): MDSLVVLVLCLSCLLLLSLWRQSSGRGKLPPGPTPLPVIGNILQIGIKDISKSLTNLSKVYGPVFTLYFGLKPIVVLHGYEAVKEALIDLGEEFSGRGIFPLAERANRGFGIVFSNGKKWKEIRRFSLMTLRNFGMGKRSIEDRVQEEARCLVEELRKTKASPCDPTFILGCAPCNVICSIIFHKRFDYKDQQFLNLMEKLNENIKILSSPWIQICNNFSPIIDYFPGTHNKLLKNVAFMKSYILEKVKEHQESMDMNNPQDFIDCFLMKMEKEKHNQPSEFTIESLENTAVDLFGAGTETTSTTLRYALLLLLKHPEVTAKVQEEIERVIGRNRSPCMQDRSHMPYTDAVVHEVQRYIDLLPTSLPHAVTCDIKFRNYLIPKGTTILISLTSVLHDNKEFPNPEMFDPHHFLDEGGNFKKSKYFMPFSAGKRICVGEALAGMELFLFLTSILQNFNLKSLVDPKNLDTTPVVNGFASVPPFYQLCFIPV
# [28] = Oral bioavailability in rat; format: ADME, organism-based; settings: in vivo
# [29] = AUC (0 to 12 hrs) in human up to 1200 mg administered bid; format: ADME; parameters: time < 12 hr, dose <=1200
# [30] = Volume of distribution in female cynomolgus monkey at 15 mg/kg, iv measured on day 1; format: ADME, organism-based, Macaca fascicularis; settings: in vivo
# [31] = Half life in mouse at 20 to 900 mg/kg, po; format: ADME, organism-based; settings: in vivo, dose 20-900 mg/kg
# [32] = Cmax in human at 2400 mg administered bid; format: ADME; parameters: dose 2400 mg; settings: in vivo
# [33] = Average plasma concentration at steady state in mouse at 62 mg/kg administered bid; format: ADME, organism-based; settings: in vivo
# [34] = Clearance in female cynomolgus monkey at 75 mg/kg, po measured on day 1; format: ADME, organism-based, Macaca fascicularis; settings: in vivo
# [35] = Average plasma concentration at steady state in mouse at 250 mg/kg administered bid; format: ADME, organism-based; settings: in vivo
# [36] = Cmax in human up to 1200 mg administered bid; format: ADME; parameters: dose <=1200
# [37] = Change in AUC(infinity) in rat at 185 umol/kg, po measured upto 72 hrs by LC-MS/MS analysis; format: ADME, organism-based; settings: in vivo, at 185 µmol/kg
# [38] = Tmax in female cynomolgus monkey at 225 mg/kg, po measured on day 1; format: ADME, organism-based, Macaca fascicularis; settings: in vivo
# [39] = Clearance in female cynomolgus monkey at 15 mg/kg, iv measured on day 1; format: ADME, organism-based, Macaca fascicularis; settings: in vivo, time 1 day
# [40] = Cmax in female cynomolgus monkey at 225 mg/kg, po measured on day 1; format: ADME, organism-based, Macaca fascicularis; parameters: route oral, dose 225 mg/kg; settings: in vivo
# [41] = Solubility of compound at pH 7.4; format: physicochemical; settings: buffer
structure (smiles),measurement,setting,value
CCOC(=O)[C@@H](Cc1cn(C)c2ccccc12)NC(=O)[C@@H](N)CC(C)C.Cl,Activity,[1],Toxic
same,Drug metabolism,[2],Metabolite_Detected
same,IC50,[3],> 50 µM
same,Cmax,[4],170 µM
same,AUC at 12 h,[5],1410 µM·h
same,remaining at 24 h,[6],6%
same,"remaining at 2 h, 10 µM",[7],0.9%
same,Tmax,[8],1 h
same,Activity,[9],Non-Toxic
same,Tmax,[10],1 h
same,IC50,Cytochrome P450 3A4,5 µM
same,remaining at 6 h,[11],53%
same,Activity,[12],Non-Toxic
same,Activity,[13],Non-Toxic
same,Tmax,[14],1 h
same,logP,[15],2.6
same,IC50,[16],27 µM
same,Activity,[17],Non-Toxic
same,Ratio,[18],690
same,remaining at 2 h,[19],0%
same,"remaining at 24 h, 5 µM",[20],30%
same,"remaining at 24 h, 5 µM",[21],88%
same,"remaining at 2 h, 10 µM",[22],1.3%
same,IC50,Cytochrome P450 2C19,47 µM
same,logD,[23],2.3
same,Drug metabolism,[24],Metabolite_Detected
same,Activity,[25],Toxic
same,NOAEL,[26],60 mg/kg
same,AUC at 12 h,[27],953 µM·h
same,IC50,Cytochrome P450 2C9,> 50 µM
Cn1cc(C[C@@H](N)C(=O)O)c2ccccc21 [INDOXIMOD],bioavailability,[28],50%
same,AUC at 12 h,[29],83 µM·h
same,Vd,[30],0.9 L/kg
same,half-life,[31],2.2 h
same,Cmax,[32],22 µM
same,Cave,[33],> 7 µM
same,CL/F,[34],25.6 mL/min/kg
same,Cave,[35],29 µM
same,Cmax,[36],13.7 µM
same,Activity,[37],0%
same,Tmax,[38],1 h
same,clearance,[39],10.2 mL/min/kg
same,Cmax,[40],68.5 µM
same,solubility,[41],< 2000 µg/mL
